# Results as given in paper PMC9312958, “A Novel and Selective Dopamine Transporter Inhibitor, (S)-MK-26, Promotes Hippocampal Synaptic Plasticity and Restores Effort-Related Motivational Dysfunctions” (Biomolecules, 2022).
# Test system: aged rats
# Test: Hole-board test, spatial reference memory
# Type: in vivo, rat
# Text: In order to examine the effect of (S)-MK-26 on hippocampus-dependent spatial reference memory, we used the standardized hole-board test (animal experiments conducted under BMBWF-66.009/235/V/3b/2018 regulations) following published procedures with minor modifications. In brief, food restriction and controlled body weight loss with it (until steadily reaching 85% of the average body weight sustained during ad libitum feeding) was initially imposed for this experimental study as cognitive/behavioral incentive. A black plastic hole-board maze (1 m^2 base) with 16 symmetrically distributed holes located at the floor (7 cm in diameter and depth) and walls enriched with spatial cues was used (See Figure 4). Accessory distal cues were also visible in the walls of the experimental room. Dustless precision food pellets (45 mg, Bioserv®, Flemington, NJ, USA) were placed as motivational baits in four randomly designated holes, unchanged throughout the test. Several inaccessible pellets were also placed all across the entire area immediately below all the holes of the board maze in order to induce a uniform distribution of the food smell and thus preventing the acute orientating response of the sense of smell from prevailing over the evocation of spatial memories associated with the location of accessible food. […] The behavioral experiments were conducted in a noise-isolated room; all sessions were monitored by a distal overhead conventional digital camera and behavioral data digitalized using the ANY-Maze video tracking system (Stoelting Europe, 8-Terenure Place, Terenure, Dublin, D6W Y006, Ireland). Spatial memory performance was assessed from the number of errors made by the animal, that is, the number of times the animals visit unbaited holes (reference memory). […] Thus, from these measurements, an RMI value of “1” would constitute quantifiable indicator of optimal reference memory, with a performance without empty-hole visiting mistakes. […]
smiles,measurement,setting,value
"[O-][S@@+](Cc1cncs1)C(c1cccc(Cl)c1)c1cccc(Cl)c1 [(S)-MK-26, (S)-5-(((B(3-chlorophenyl)methyl)sulphinyl)methyl)thiazole]",spatial reference memory (reference memory index),"10 mg/kg i.p. daily, vs Kolliphor",slight and transitory—yet statistically significant—enhancement of spatial reference memory
same,exploratory activity (distance travelled) during H3 habituation session,"10 mg/kg i.p., p = 0.0053",induced an increase in ecology-like exploratory activity
same,number of hole dips,"10 mg/kg i.p., vs Kolliphor",No differences
